Assay in all cases: NCI anticancer screen, dose series, 48 h
Test [1] concerns HL-60(TB) leukemia.
Test [2] concerns HT29 colon.
In test [3] the test system is M14 melanoma.
Test [4] relates to NCI-H226 lung.
Test [5] relates to NCI-H460 lung.
The test system of test [6] is OVCAR-5 ovarian.
Test [7] relates to UACC-62 melanoma.

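Tested at 5 concentrations; 48 h exposure; 96-well plates; endpoints linearly interpolated, else capped at highest concentration. Definition used: TGI = concentration required for complete inhibition of growth.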 A value given as a limit tells only on which side of the number the result lay.

For `Cc1cccc(C(C)C)c1N1C(=O)C(=O)C(c2nc3ccccc3o2)C(=O)C1=O`, the TGI in test [1] is 80.9 µM; in test [2], over 100 µM; in test [3] it was over 100 µM; in test [4], over 100 µM; in test [5] it was over 100 µM; in test [6], over 100 µM. Also, in test [7], the TGI was over 100 µM.
On to `COC(=O)/C(=N/Nc1cccc(Cl)c1)C(C(=O)C(=O)Nc1cccc(Cl)c1C)c1nc2ccccc2nc1C` (configuration not stated), for which the TGI was over 100 µM in test [1]; over 100 µM in test [2]; over 100 µM in test [3]; over 100 µM in test [5]; 59.8 µM in test [6]; over 100 µM in test [7].
In the case of `Nc1c(O)cc(N=C2C(=O)C=CC=C2C(=O)O)c(O)c1C(=O)O`, the TGI in test [1] is over 100 µM; in test [2], over 100 µM; in test [3], over 59.2 µM; in test [4], over 100 µM; in test [6], over 100 µM; in test [7], over 100 µM.
Turning to `Cc1noc2c1C(=O)CCC2`, the TGI in test [1], in test [2], in test [3], in test [4], in test [6] and in test [7] was over 100 µM throughout.
As for `COC(=O)C1C=CCON2CCc3c(n(C)c4ccccc34)C12` (configuration not stated), the TGI in test [1], in test [2], in test [3], in test [4], in test [5] and in test [6] was over 100 µM in each case.
Consider `N#CC1CCCCOCCOCCOCCOCCOCCCCCC1=O` (configuration not stated), for which the TGI in test [1], in test [2], in test [3], in test [4], in test [5] and in test [6] was over 100 µM each time. Also, the TGI in test [7] was over 100 µM.
For `O=c1cc(-c2c[nH]c3ccccc23)[nH]c2cc3c(cc12)OCO3`, the TGI in test [1], in test [2], in test [3], in test [4], in test [5] and in test [7] was over 100 µM in each case.
Consider `C#CC[N+](C)(CC#C)CC#C`, for which the TGI in test [1], in test [2], in test [3], in test [5], in test [6] and in test [7] was over 100 µM throughout.
Turning to `O=C(CSc1ncn[nH]1)C[P+](c1ccccc1)(c1ccccc1)c1ccccc1`, the TGI in test [1], in test [3], in test [5], in test [6] and in test [7] was over 100 µM throughout.
As to `COC(=O)CCC1CCc2c(OC)ccc(OC)c2C1=O` (configuration not stated), the TGI in test [1], in test [2], in test [3], in test [5], in test [6] and in test [7] was over 100 µM throughout.
As to `COC(=O)C1=C(c2ccc(OC)c(OC)c2)OC(c2cc(OC)c(OC)c(OC)c2)C1` (configuration not stated), the TGI in test [2], in test [3], in test [4], in test [5] and in test [6] was over 100 µM throughout.
For `O=C(NCCO)c1ccc([N+](=O)[O-])cc1`, the TGI in test [1], in test [2], in test [3], in test [4], in test [5] and in test [7] was over 100 µM each time.
As to `Cc1nnc2c3nnc(C)n3c3ccccc3n12`, the TGI in test [2], in test [3], in test [4], in test [5], in test [6] and in test [7] was over 100 µM throughout.
Regarding `CS(=O)(=O)NNS(=O)(=O)c1ccccc1`, the TGI in test [1], in test [2], in test [3], in test [4], in test [5] and in test [7] was over 100 µM throughout.
On to `Cn1c(=O)c(NC(=O)C(Cl)(Cl)Cl)nc2ccccc21`, for which the TGI in test [1], in test [2], in test [3], in test [4], in test [5] and in test [7] was over 100 µM in each case.
For the compound `O=C1NC(=O)C(=Nc2cccc3c(=O)[nH][nH]c(=O)c23)C(c2nc3ccccc3s2)C1=O` (configuration not stated), the TGI in test [1], in test [2], in test [3], in test [4], in test [5] and in test [7] was over 100 µM each time.
Turning to `CN(C)c1nnnn1-c1c(N)n(C)c(=O)n(C)c1=O`, the TGI in test [1], in test [2], in test [4], in test [5], in test [6] and in test [7] was over 100 µM throughout.

The values above are taken from PubChem BioAssay (NCI).
